Test results reported in ChEMBL document CHEMBL3714742, “Pyrimido (4,5-b) indole derivatives” (2003).
The source made the active and inactive calls. How the calls were made is not given here.

Columns and labels:
Mus musculus [1] = assay: Inhibition of anti-CD3 antibody-induced IFNgamma production in Balb/c mouse dosed intravenously 5 mins before anti-CD3 antibody injection and measured 2 hrs post-challenge by ELISA; assay type: functional, organism-based
[2] = molecular target: T1, Dual specificity mitogen-activated protein kinase kinase 7 (Homo sapiens, UniProt O14733); assay: Inhibition of GST-tagged human MKK7 expressed in Escherichia coli (BL21(DE3) pLysS) co-expressing human MEKK catalytic domain using biotinylated and GST-tagged rat GST-KN-SAPKalpha substrate incubated for 1 hr by time-resolved fluorescence based assay
T1 sequence (O14733 whole entry): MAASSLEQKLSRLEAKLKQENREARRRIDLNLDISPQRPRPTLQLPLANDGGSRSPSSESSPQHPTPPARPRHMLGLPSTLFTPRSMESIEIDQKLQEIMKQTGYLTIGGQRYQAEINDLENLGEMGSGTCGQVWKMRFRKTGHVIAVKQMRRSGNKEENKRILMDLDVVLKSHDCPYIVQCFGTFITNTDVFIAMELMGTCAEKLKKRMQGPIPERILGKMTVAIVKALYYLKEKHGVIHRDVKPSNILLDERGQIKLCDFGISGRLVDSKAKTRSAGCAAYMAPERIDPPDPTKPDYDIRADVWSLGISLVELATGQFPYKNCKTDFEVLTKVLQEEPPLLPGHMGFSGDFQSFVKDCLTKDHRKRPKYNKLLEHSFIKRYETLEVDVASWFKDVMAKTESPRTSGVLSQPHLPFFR

Mus musculus [3] = assay: Inhibition of anti-CD3 antibody-induced IL2 production in Balb/c mouse dosed intravenously 5 mins before anti-CD3 antibody injection and measured 2 hrs post-challenge by ELISA; assay type: functional, organism-based
Mus musculus [4] = assay: Inhibition of anti-CD3 antibody-induced IL4 production in Balb/c mouse dosed intravenously 5 mins before anti-CD3 antibody injection and measured 2 hrs post-challenge by ELISA; assay type: functional, organism-based

| SMILES | inhibition (Mus musculus [1]) | IC50 [2] | inhibition (Mus musculus [3]) | inhibition (Mus musculus [4]) |
| --- | --- | --- | --- | --- |
| NC(=O)c1ccc2[nH]c3ncnc(NC4CCCCC4)c3c2c1 | Active | < 1 µM | Active | Active |
| Oc1ccc2[nH]c3ncnc(N4CCNCC4)c3c2c1 | Active | < 1 µM | Active | Active |
| CN(c1nc(N)nc2[nH]c3ccc(O)cc3c12)C1CCCCC1 | Active | < 1 µM | Active | Active |
| Cc1nc(N2CCCC(CO)C2)c2c(n1)[nH]c1ccc(O)cc12 (stereo not given) | Active | < 1 µM | Active | Active |
| O=C1CCN(c2ncnc3[nH]c4ccc(O)cc4c23)CC1 | Active | < 1 µM | Active | Active |
| Cc1nc(N2CCCC(C)C2)c2c(n1)[nH]c1ccc(O)cc12 (stereo not given) | Active | 1 µM | Active | Active |
| Nc1nc(N2CCCCC2)c2c(n1)[nH]c1ccc(O)cc12 | Active | < 1 µM | Active | Active |
| Nc1nc(NC2CCCC2)c2c(n1)[nH]c1ccc(O)cc12 | Active | < 1 µM | Active | Active |
| CC(CO)Nc1ncnc2[nH]c3ccc(C(N)=O)cc3c12 (stereo not given) | Active | < 1 µM | Active | Active |
| OCCCNc1ncnc2[nH]c3ccc(O)cc3c12 | Active | < 1 µM | Active | Active |
| OCC1CCCCN1c1ncnc2[nH]c3ccc(O)cc3c12 (stereo not given) | Active | < 1 µM | Active | Active |
| NC(=O)c1ccc2[nH]c3ncnc(N4CCC(O)(Cc5ccccc5)CC4)c3c2c1 | Active | < 1 µM | Active | Active |
| CN(CCO)c1ncnc2[nH]c3ccc(O)cc3c12 | Active | < 1 µM | Active | Active |
| NCCNc1ncnc2[nH]c3ccc(C(N)=O)cc3c12 | Active | < 1 µM | Active | Active |
| CC(C)(C)OC(=O)N1CCC(Nc2ncnc3[nH]c4ccc(O)cc4c23)CC1 | Active | < 1 µM | Active | Active |
| Nc1nc(N2CCC3CCCCC3C2)c2c(n1)[nH]c1ccc(O)cc12 (stereo not given) | Active | < 1 µM | Active | Active |
| Cc1nc(NC(C)CO)c2c(n1)[nH]c1ccc(OCc3ccccc3)cc12 (stereo not given) | Active | < 1 µM | Active | Active |
| COC(=O)c1ccc2[nH]c3nc(C)nc(N4CCCCC4)c3c2c1 | Active | < 1 µM | Active | Active |
| CC1CC(C)CN(c2ncnc3[nH]c4ccc(O)cc4c23)C1 (stereo not given) | Active | 1 µM | Active | Active |
| Cc1nc(N2CCCC(O)C2)c2c(n1)[nH]c1ccc(O)cc12 (stereo not given) | Active | < 1 µM | Active | Active |
| CC(C)N(C)c1ncnc2[nH]c3ccc(O)cc3c12 | Active | < 1 µM | Active | Active |
| OCCC1CCN(c2ncnc3[nH]c4ccc(O)cc4c23)CC1 | Active | < 1 µM | Active | Active |
| NC(=O)c1ccc2[nH]c3nc(N)nc(N4CCCCC4)c3c2c1 | Active | < 1 µM | Active | Active |
| Nc1nc(NCc2ccccc2)c2c(n1)[nH]c1ccc(O)cc12 | Active | < 1 µM | Active | Active |
| Oc1ccc2[nH]c3ncnc(N4CCC(O)CC4)c3c2c1 | Active | < 1 µM | Active | Active |
